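Tested at 5 concentrations; 48 h exposure; 96-well plates; endpoints linearly interpolated, else capped at highest concentration. The concentration for full growth arrest is given as TGI.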
Columns and labels:
Test in all cases: DTP human tumour cell line panel, 48 h
SK-OV-3 ovarian = test system: SK-OV-3 ovarian
NCI-H460 lung = test system: NCI-H460 lung
OVCAR-3 ovarian = test system: OVCAR-3 ovarian
M14 melanoma = test system: M14 melanoma
HCT-15 colon = test system: HCT-15 colon
UACC-257 melanoma = test system: UACC-257 melanoma
UACC-62 melanoma = test system: UACC-62 melanoma
MALME-3M melanoma = test system: MALME-3M melanoma
HT29 colon = test system: HT29 colon
HL-60(TB) leukemia = test system: HL-60(TB) leukemia
KM12 colon = test system: KM12 colon
EKVX NSCLC = test system: EKVX NSCLC
NCI-H522 lung = test system: NCI-H522 lung
MOLT-4 leukemia = test system: MOLT-4 leukemia
RXF 393 renal = test system: RXF 393 renal
MDA-MB-435 = test system: MDA-MB-435
T-47D breast = test system: T-47D breast
HS 578T breast = test system: HS 578T breast
BT-549 breast = test system: BT-549 breast

Measured: TGI

COc1ccc(-c2c(C(C)=O)c(-c3ccccc3)n(C3OC(COC(C)=O)C(OC(C)=O)C(OC(C)=O)C3OC(C)=O)c(=S)c2C#N)cc1 (stereo not drawn)
> 100 µM: SK-OV-3 ovarian | NCI-H460 lung | OVCAR-3 ovarian | M14 melanoma | HCT-15 colon | UACC-257 melanoma | UACC-62 melanoma | MALME-3M melanoma | HT29 colon | HL-60(TB) leukemia | KM12 colon | EKVX NSCLC | NCI-H522 lung | MOLT-4 leukemia | RXF 393 renal | MDA-MB-435 | T-47D breast

CCOC(=O)C(Cl)(NC(=O)c1ccc(F)cc1)C(F)(F)F (stereo not drawn)
> 100 µM: SK-OV-3 ovarian | NCI-H460 lung | OVCAR-3 ovarian | M14 melanoma | HCT-15 colon | UACC-257 melanoma | MALME-3M melanoma | HT29 colon | HL-60(TB) leukemia | KM12 colon | EKVX NSCLC | NCI-H522 lung | MOLT-4 leukemia | RXF 393 renal | HS 578T breast | MDA-MB-435 | T-47D breast

CN(C)/N=C(\CCN1CCCC1)CC(c1ccccc1)c1c(O)c2ccccc2oc1=O (stereo not drawn)
> 100 µM: SK-OV-3 ovarian | OVCAR-3 ovarian | M14 melanoma | UACC-257 melanoma | UACC-62 melanoma | MALME-3M melanoma | HT29 colon | EKVX NSCLC | NCI-H522 lung | RXF 393 renal
72.9 µM: HL-60(TB) leukemia

COC(=O)CCC(=O)NC1c2cccc3cccc(c23)Cn2c(=O)n(C)c(=O)n21 (stereo not drawn)
> 100 µM: SK-OV-3 ovarian | NCI-H460 lung | OVCAR-3 ovarian | M14 melanoma | HCT-15 colon | UACC-257 melanoma | UACC-62 melanoma | MALME-3M melanoma | HT29 colon | KM12 colon | EKVX NSCLC | BT-549 breast | NCI-H522 lung | MOLT-4 leukemia | RXF 393 renal | HS 578T breast | MDA-MB-435

Cc1nnc([C@@]2(C)CC[C@H]3[C@@H](CC=C4C[C@@H](O)CC[C@@]43C)[C@@H]2CC#N)o1
> 100 µM: SK-OV-3 ovarian | OVCAR-3 ovarian | M14 melanoma | HCT-15 colon | UACC-257 melanoma | UACC-62 melanoma | MALME-3M melanoma | HT29 colon | HL-60(TB) leukemia | KM12 colon | EKVX NSCLC | BT-549 breast | NCI-H522 lung | MOLT-4 leukemia | RXF 393 renal | HS 578T breast | MDA-MB-435

COc1cc2c(c(OC)c1OC)-c1ccc(SC)c(=O)cc1C(CC(=O)Oc1ccc([N+](=O)[O-])cc1)C2 (stereo not drawn)
0.65 µM: RXF 393 renal
> 49.1 µM: UACC-257 melanoma
11.4 µM: UACC-62 melanoma
5.78 µM: NCI-H460 lung
0.099 µM: HT29 colon
0.489 µM: KM12 colon
> 100 µM: SK-OV-3 ovarian | HCT-15 colon | EKVX NSCLC | MOLT-4 leukemia
> 38.2 µM: HL-60(TB) leukemia
> 65.2 µM: MALME-3M melanoma
0.905 µM: OVCAR-3 ovarian
1.53 µM: M14 melanoma

O=[N+]([O-])C(C(Cl)=C(Cl)Cl)=C(N1CCOCC1)N1CCOCC1
> 100 µM: SK-OV-3 ovarian | OVCAR-3 ovarian | M14 melanoma | HCT-15 colon | UACC-257 melanoma | UACC-62 melanoma | MALME-3M melanoma | HT29 colon | HL-60(TB) leukemia | KM12 colon | EKVX NSCLC | NCI-H522 lung | MOLT-4 leukemia | RXF 393 renal | HS 578T breast | MDA-MB-435 | T-47D breast

CCOC(=O)CC(NC(=O)c1nc[nH]c1[N+](=O)[O-])C(=O)OCC (stereo not drawn)
> 100 µM: SK-OV-3 ovarian | NCI-H460 lung | OVCAR-3 ovarian | M14 melanoma | HCT-15 colon | UACC-257 melanoma | UACC-62 melanoma | MALME-3M melanoma | HT29 colon | KM12 colon | EKVX NSCLC | NCI-H522 lung | MOLT-4 leukemia

N#CCCN(CCC#N)c1ccc(C(=O)NN)cc1
> 100 µM: SK-OV-3 ovarian | NCI-H460 lung | OVCAR-3 ovarian | M14 melanoma | HCT-15 colon | UACC-257 melanoma | UACC-62 melanoma | MALME-3M melanoma | HT29 colon | HL-60(TB) leukemia | KM12 colon | EKVX NSCLC | NCI-H522 lung | MOLT-4 leukemia | RXF 393 renal

COc1ccc2c(c1)OCc1c-2oc2ccccc2c1=O
> 100 µM: SK-OV-3 ovarian | OVCAR-3 ovarian | M14 melanoma | HCT-15 colon | UACC-257 melanoma | UACC-62 melanoma | MALME-3M melanoma | HT29 colon | KM12 colon | EKVX NSCLC | BT-549 breast | NCI-H522 lung | MOLT-4 leukemia | MDA-MB-435

Cc1[nH]c(=O)[nH]c(=S)c1C(=O)NC(C)(CO)CO
> 100 µM: SK-OV-3 ovarian | NCI-H460 lung | OVCAR-3 ovarian | M14 melanoma | HCT-15 colon | UACC-257 melanoma | UACC-62 melanoma | MALME-3M melanoma | HT29 colon | HL-60(TB) leukemia | KM12 colon | EKVX NSCLC | NCI-H522 lung | MOLT-4 leukemia | RXF 393 renal | HS 578T breast | MDA-MB-435 | T-47D breast

CC(=O)OC1CC2OC(Cc3ccccc32)O1 (stereo not drawn)
63.7 µM: MALME-3M melanoma
> 100 µM: SK-OV-3 ovarian | NCI-H460 lung | OVCAR-3 ovarian | M14 melanoma | UACC-257 melanoma | UACC-62 melanoma | HT29 colon | HL-60(TB) leukemia | KM12 colon | EKVX NSCLC | NCI-H522 lung | MOLT-4 leukemia | RXF 393 renal

S=C1Cc2c([nH]c3ccccc23)-c2ccccc2N1
> 100 µM: NCI-H460 lung | OVCAR-3 ovarian | M14 melanoma | UACC-257 melanoma | UACC-62 melanoma | MALME-3M melanoma | HT29 colon | HL-60(TB) leukemia | KM12 colon | EKVX NSCLC | MOLT-4 leukemia | HS 578T breast | MDA-MB-435 | T-47D breast
46 µM: RXF 393 renal
64.4 µM: SK-OV-3 ovarian

CC(=O)NCc1nc(C#N)c(N)o1
> 100 µM: SK-OV-3 ovarian | NCI-H460 lung | OVCAR-3 ovarian | M14 melanoma | HCT-15 colon | UACC-257 melanoma | UACC-62 melanoma | MALME-3M melanoma | HT29 colon | HL-60(TB) leukemia | KM12 colon | EKVX NSCLC | NCI-H522 lung | MOLT-4 leukemia | RXF 393 renal | HS 578T breast | MDA-MB-435 | T-47D breast
